Measured values taken from patent publication US10798941B2, “Microbiocidal oxadiazole derivatives” (SYNGENTA PARTICIPATIONS AG, priority 2016, dated 2020).

Experiments:
[1] = test system: Glomerella Lagenarium (Colletotrichum Lagenarium); assay: Glomerella lagenarium (Colletotrichum lagenarium) liquid culture / cucumber / preventative (anthracnose); format: cell-based; conditions: Colletotrichum orbiculare; 20 ppm in the applied formulation; liquid culture in PDB, 24° C., inhibition of growth measured photometrically 3 to 4 days after application, vs untreated; read-out: disease control
Description: Mycelia fragments or conidia suspensions of a fungus prepared either freshly from liquid cultures of the fungus or from cryogenic storage, are directly mixed into nutrient broth. DMSO solutions of the test compound (max. 10 mg/ml) are diluted with 0.025% Tween20 by a factor of 50 and 10 μl of this solution is pipetted into a microtiter plate (96-well format). The nutrient broth containing the fungal spores/mycelia fragments is then added to give an end concentration of the tested compound. The test plates are incubated in the dark at 24° C. and 96% relative humidity. The inhibition of fungal growth is determined photometrically after 2 to 7 days, depending on the pathosystem, and percent antifungal activity relative to the untreated check is calculated.
Conidia of the fungus from cryogenic storage are directly mixed into nutrient broth (PDB—potato dextrose broth). After placing a (DMSO) solution of test compound into a microtiter plate (96-well format), the nutrient broth containing the fungal spores is added.
The following compounds at 20 ppm in the applied formulation give at least 80% disease control in this test when compared to untreated control under the same conditions, which show extensive disease development.

[2] = test system: Puccinia recondita f. Sp. Tritici; assay: Puccinia recondita f. sp. tritici / wheat / leaf disc preventative (brown rust); format: in vivo; conditions: foliar, 168 h, 200 ppm in the applied formulation, wheat leaf segments cv. Kanzler, preventative, inoculated 1 day after application, assessed 7 to 9 days after application, vs untreated, read-out: disease control
Description: Leaf disks or leaf segments of various plant species are cut from plants grown in a greenhouse. The cut leaf disks or segments are placed in multiwell plates (24-well format) onto water agar. The leaf disks are sprayed with a test solution before (preventative) or after (curative) inoculation. Compounds to be tested are prepared as DMSO solutions (max. 10 mg/ml) which are diluted to the appropriate concentration with 0.025% Tween20 just before spraying. The inoculated leaf disks or segments are incubated under defined conditions (temperature, relative humidity, light, etc.) according to the respective test system. A single evaluation of disease level is carried out 3 to 14 days after inoculation, depending on the pathosystem. Percent disease control relative to the untreated check leaf disks or segments is then calculated.
Wheat leaf segments cv. Kanzler were placed on agar in multiwell plates (24-well format) and sprayed with the formulated test compound diluted in water. The leaf disks were inoculated with a spore suspension of the fungus 1 day after application. The inoculated leaf segments were incubated at 19° C. and 75% relative humidity (rh) under a light regime of 12 hours light/12 hours darkness in a climate cabinet and the activity of a compound was assessed as percent disease control compared to untreated when an appropriate level of disease damage appears in untreated check leaf segments (7 to 9 days after application).
The following compounds at 200 ppm in the applied formulation give at least 80% disease control in this test when compared to untreated control leaf disks under the same conditions, which show extensive disease development.

## Fc1cc(-c2noc(C(F)(F)F)n2)ccc1Cn1cnc2ccccc21 [Compound 1.126, 3-[4-(benzimidazol-1-ylmethyl)-3-fluoro-phenyl]-5-(trifluoromethyl)-1,2,4-oxadiazole]
[1]
  inhibition of growth at 20 ppm: ≥ 80%
[2]
  pest or weed control at 200 ppm: ≥ 80%

## COc1cc(Cl)cnc1OCc1cn(Cc2ccc(-c3noc(C(F)(F)F)n3)cc2)nn1 [Compound 1.29, 3-[4-[[4-[(5-chloro-3-methoxy-2-pyridyl)oxymethyl]triazol-1-yl]methyl]phenyl]-5-(trifluoromethyl)-1,2,4-oxadiazole]
[1]
  inhibition of growth at 20 ppm: ≥ 80%
[2]
  pest or weed control at 200 ppm: ≥ 80%

## FC(F)(F)c1nc(-c2ccc(CN3CCOCC3)cc2)no1 [Compound 1.301, 4-[[4-[5-(trifluoromethyl)-1,2,4-oxadiazol-3-yl]phenyl]methyl]morpholine]
[2]
  pest or weed control at 200 ppm: ≥ 80%

## Cc1nccn1Cc1ccc(-c2noc(C(F)(F)F)n2)cc1 [Compound 1.53, 3-[4-[(2-methylimidazol-1-yl)methyl]phenyl]-5-(trifluoromethyl)-1,2,4-oxadiazole]
[2]
  pest or weed control at 200 ppm: ≥ 80%

## FC(F)(F)c1nc(-c2ccc(Cn3cnc4cccc(Cl)c43)cc2)no1 [Compound 1.95, 3-[4-[(7-chlorobenzimidazol-1-yl)methyl]phenyl]-5-(trifluoromethyl)-1,2,4-oxadiazole]
[1]
  inhibition of growth at 20 ppm: ≥ 80%
[2]
  pest or weed control at 200 ppm: ≥ 80%

## Cc1nccn1Cc1ccc(-c2noc(C(F)(F)F)n2)cn1 [Compound 1.139, 3-[6-[(2-methylimidazol-1-yl)methyl]-3-pyridyl]-5-(trifluoromethyl)-1,2,4-oxadiazole]
[2]
  pest or weed control at 200 ppm: ≥ 80%

## Fc1cc(-c2noc(C(F)(F)F)n2)ccc1Cn1cccc2ccnc1-2 [Compound 1.125, 3-[3-fluoro-4-(pyrrolo[2,3-b]pyridin-7-ylmethyl)phenyl]-5-(trifluoromethyl)-1,2,4-oxadiazole]
[2]
  pest or weed control at 200 ppm: ≥ 80%

## Cc1cn(Cc2ccc(-c3noc(C(F)(F)F)n3)cc2Cl)c(C)n1 [Compound 1.105, 3-[3-chloro-4-[(2,4-dimethylimidazol-1-yl)methyl]phenyl]-5-(trifluoromethyl)-1,2,4-oxadiazole]
[2]
  pest or weed control at 200 ppm: ≥ 80%

## C[C@@H]1CN(Cc2ccc(-c3noc(C(F)(F)F)n3)cc2)C[C@@H](C)O1 [Compound 1.308, (2R,6R)-2,6-dimethyl-4-[[4-[5-(trifluoromethyl)-1,2,4-oxadiazol-3-yl]phenyl]methyl]morpholine]
[2]
  pest or weed control at 200 ppm: ≥ 80%

## Fc1cc2ncn(Cc3ccc(-c4noc(C(F)(F)F)n4)cc3)c2cc1Cl [Compound 1.92, 3-[4-[(6-chloro-5-fluoro-benzimidazol-1-yl)methyl]phenyl]-5-(trifluoromethyl)-1,2,4-oxadiazole]
[1]
  inhibition of growth at 20 ppm: ≥ 80%

## FC(F)(F)c1nc(-c2ccc(Cn3c(Br)nc(Cl)c3Cl)cc2)no1 [Compound 1.72, 3-[4-[(2-bromo-4,5-dichloro-imidazol-1-yl)methyl]phenyl]-5-(trifluoromethyl)-1,2,4-oxadiazole]
[1]
  inhibition of growth at 20 ppm: ≥ 80%

## C[C@@H]1CN(Cc2ccc(-c3noc(C(F)(F)F)n3)cc2)C[C@H](C)O1 [Compound 1.307, (2R,6S)-2,6-dimethyl-4-[[4-[5-(trifluoromethyl)-1,2,4-oxadiazol-3-yl]phenyl]methyl]morpholine]
[1]
  inhibition of growth at 20 ppm: ≥ 80%

## FC(F)(F)c1nc(-c2ccc(Cn3cc(I)cn3)c(Cl)c2)no1 [Compound 1.114, 3-[3-chloro-4-[(4-iodopyrazol-1-yl)methyl]phenyl]-5-(trifluoromethyl)-1,2,4-oxadiazole]
[1]
  inhibition of growth at 20 ppm: ≥ 80%

## FC(F)(F)c1nc(-c2ccc(Cn3cc(Cl)cn3)c(Cl)c2)no1 [Compound 1.111, 3-[3-chloro-4-[(4-chloropyrazol-1-yl)methyl]phenyl]-5-(trifluoromethyl)-1,2,4-oxadiazole]
[1]
  inhibition of growth at 20 ppm: ≥ 80%
